Patent US20120270770A1, “Anti-angiogenic peptides and their uses” (priority 2010, published 2012)
Entries after “also recorded” stand apart in the source; their conditions may differ. Where a SMILES comes first, the peptide text is derived from it.

Tests used:
[1] = Fate of radiolabeled (3H/14C) peptide after injection into the animal; format: in vivo; details: no matter the route of administration
Text: Lytic peptides are active in eliminating tumor-derived cells by causing direct osmotic lysis. […] Indeed, that is the case. […] However, in some cases there was little activity. To determine what might be happening in vivo, radiolabeled D2A21 was chemically synthesized with all alanines labeled with either ^3H or ^14C. Since the labeling pattern was asymmetric, it enabled us to follow the physical state of the peptide once it had been injected into the animal by comparing the unique ratios of ^3H/^14C that would result if the peptide experienced proteolysis. […] The possibility emerged that the systemic in vivo anti-cancer activity was retained within specific fragments of D2A21.

[2] = system: Stage IV pancreatic cancer; details: cited from earlier work
[3] = system: angiogenesis in Matrigel deposits imbibed with fibroblast growth factor 1 (FGF1); test: Matrigel deposit angiogenesis assay (FGF1-loaded Matrigel implanted in mice, histology score); format: in vivo; parameters: key to top level score reached in Matrigel deposits: ++++: This system ranks each sample using a 0 to 4 plus (+) scale; B in FIG. 13 would yield a score of +++; no + sign would yield a value of 0, as in A in FIG. 13; details: for angiogenic activity score, Sample 1 / angiogenic activity score, Sample 2 / angiogenic activity score, Sample 3 / angiogenic activity score, Sample 4 / angiogenic activity score, Sample 5 / angiogenic activity score, Sample 6 / angiogenic activity score, Sample 7 / angiogenic activity score, Sample 8 / top level score reached in Matrigel deposits: 0 to 4 plus scale; for angiogenic activity score, Sample 1 / angiogenic activity score, Sample 2 / angiogenic activity score, Sample 3 / angiogenic activity score, Sample 4 / angiogenic activity score, Sample 5 / angiogenic activity score, Sample 6 / angiogenic activity score, Sample 7 / angiogenic activity score, Sample 8 / angiogenic / anti-angiogenic activity in Matrigel deposit (in words): 20 μg peptide IP daily; for angiogenic activity score, Sample 1 / angiogenic activity score, Sample 2 / angiogenic activity score, Sample 3 / angiogenic activity score, Sample 4 / angiogenic activity score, Sample 5 / angiogenic activity score, Sample 6 / angiogenic activity score, Sample 7 / angiogenic activity score, Sample 8: Day 14 histology; for % Diff.: difference of mean score from control (2.50); for angiogenic / anti-angiogenic activity in Matrigel deposit (in words): histology, Day 14; for angiogenic activity score, Mean: mean of samples, control mean 2.50
Text: Matrigel deposits were surgically implanted on both sides of 4 mice per treatment yielding a possible 8 samples per treatment. Matrigel is a polymeric substance that appears to be relatively inert in animals and it can serve as a matrix that allows experimentation in vivo on many different difficult-to-study-processes. Prior to implantation, the Matrigel was allowed to imbibe fibroblast growth factor 1 (FGF1). This protein is a powerful inducer of angiogenesis and its presence guarantees that sufficient activity will be observed within the allotted time period of the experiment. Therefore, any inhibition of angiogenesis is likely to be a real phenomenon as the experiment has been set to heavily favor the angiogenic process. Angiogenesis occurs by day 14 and beginning Day 1 (Day 0=day of implantation), mice were injected IP daily with 20 μg of peptide in 100 μl of normal saline. The animals were sacrificed on Day 14, and each Matrigel deposit divided longitudinally and fixed in 10% buffered formalin. One of the halves of each Matrigel deposit was then sectioned. Read-out for this experiment was via histology, with semi-quantitative/qualitative counting of migration of cells and their subsequent assembly of lumenal structures within the Matrigel. This method allows us to observe the full physiologic spectrum of effects, and was useful in delineating trends. […] In FIG. 13, A represents what a section of a Matrigel gel deposit looks like under the microscope soon after surgical implantation. The sample in B is derived from the control at the conclusion of the experiment. Intense activity is present with numerous cells attaching to the surface of the Matrigel. Cells begin to penetrate the deposit and organize into discrete structures that coalesce to form the beginning of tubes twisting and branching in many directions. These venules eventually connect with the system carrying blood and it is possible to see red cells and lymphocytes within them. This process is called “arborization”, derived from the fact that the angiogenic process most closely resembles the growth of roots and branches of trees. All but two of the peptide treatments looked, more or less, like B (all the peptides of Table 1 were tested). In C, a typical sample from the peptide C-1 treatment is shown. […] Consequently, there were far fewer cells and cellular structures inside of the Matrigel. […] There were large regions of Matrigel that had no visibly associated structures and few single cells, including on the periphery, while other regions had some limited activity.
This system ranks each sample using a 0 to 4 plus (+) scale. Thus, B in FIG. 13 would yield a score of +++ while no + sign would yield a value of 0, as in A in FIG. 13. In Table 3 the data is modified to a numerical form and plotted averages are shown.

[4] = system: HMEC-1 monolayer; test: Endothelial cell migration assay (scraped HMEC-1 monolayer); format: cell-based; details: NT = 1.00
Method: The results in Table 6 are gathered from an in vitro experiment and show the ability of JC 15 10N to inhibit the migration of endothelial cells (the “minus” values). This migration is a requisite step in the formation of new blood vessels. […] The shading indicates the presence of VEGF ([…] endothelial growth factor). This growth factor causes endothelial cell migration and consequent assembly of blood vessels.
Cell migration was performed as previously described. In brief, a HMEC-1 monolayer was scraped making a 1-mm wide denuded area then stimulated with VEGF and 10N and the area unoccupied by the migrating cells was determined using MetaMorph and expressed as a percentage of control.

time to hydrolysis of labeled peptide to fragments of various lengths [1] | Compound | longest survival on treatment ([2]; patients with Stage IV pancreatic cancer on gemcitabine treatment) [months] | Median survival time ([2]; patients with Stage IV pancreatic cancer treated with gemcitabine (untreated 4.5 months)) [months] | angiogenic activity score, Sample 1 [3] | angiogenic activity score, Sample 2 [3] | angiogenic activity score, Sample 3 [3] | angiogenic activity score, Sample 4 [3] | angiogenic activity score, Sample 5 [3] | angiogenic activity score, Sample 6 [3] | angiogenic activity score, Sample 7 [3] | angiogenic activity score, Sample 8 [3] | % Diff. [3] [%] | angiogenic / anti-angiogenic activity in Matrigel deposit (in words) [3] | angiogenic activity score, Mean [3] | top level score reached in Matrigel deposits [3] | Endothelial Cell Migration ([4]; VEGF 75 ng/ml, second series) | Endothelial Cell Migration ([4]; VEGF 150 ng/ml, first series) | Endothelial Cell Migration ([4]; VEGF 150 ng/ml, third series)
within minutes | C[C@H](NC(=O)[C@H](Cc1ccccc1)NC(=O)[C@H](C)NC(=O)[C@H](Cc1ccccc1)NC(=O)[C@H](CCCCN)NC(=O)[C@H](C)NC(=O)[C@H](Cc1ccccc1)NC(=O)[C@H](CCCCN)NC(=O)[C@H](CCCCN)NC(=O)[C@H](C)NC(=O)[C@H](Cc1ccccc1)NC(=O)[C@H](CCCCN)NC(=O)[C@H](CCCCN)NC(=O)[C@H](Cc1ccccc1)NC(=O)[C@H](CCCCN)NC(=O)[C@H](CCCCN)NC(=O)[C@H](C)NC(=O)[C@H](Cc1ccccc1)NC(=O)[C@H](CCCCN)NC(=O)[C@H](CCCCN)NC(=O)[C@H](C)NC(=O)[C@@H](N)Cc1ccccc1)C(=O)N[C@@H](Cc1ccccc1)C(=O)O [JC15] (H-FAKKFAKKFKKFAKKFAKFAFAF-OH; N-terminus and C-terminus assumed) |  |  |  |  |  |  |  |  |  |  |  |  |  |  |  |  | 
 | Nc1ccn([C@@H]2O[C@H](CO)[C@@H](O)C2(F)F)c(=O)n1 [gemcitabine] | 19 | 4.8 |  |  |  |  |  |  |  |  |  |  |  |  |  |  | 
 | FAKKFAKFAF [JC15-10C] |  |  | 2 | 3 | 2 | 3 | 2 | 3 | 2 | 3 | 0.00 | inactive | 2.50 |  |  |  | 
 | FAKKFAKKFKKF [JC15-12N] |  |  | 4 | 2 | 3 | 2 | 3 | 2 | 3 |  | 8.57 | levels of activity higher than the control; also recorded: cannot exert an anti-angiogenic effect | 2.71 | ++++ |  |  | 
 | FAKKFAKKFKKFAKKFAK [JC15-18N] |  |  | 3 | 2 | 3 | 3 |  |  |  |  | 10.00 | levels of activity higher than the control; also recorded: cannot exert an anti-angiogenic effect | 2.75 |  |  |  | 
 | IVRRADRAAVPIVNLKDELL [C-1] |  |  | 2 | 2 | 3 | 1 | 2 | 1 |  |  | −26.67 | far fewer cellular associations; also recorded: possess anti-angiogenic activity | 1.83 |  |  |  | 
 | KKFKKFAKKFAKFAF [JC15-15C] |  |  | 2 | 3 | 2 | 3 | 2 | 3 | 3 | 4 | 10.00 | levels of activity higher than the control; also recorded: cannot exert an anti-angiogenic effect | 2.75 | ++++ |  |  | 
 | LDLQAPLYKKIIKKLLES [PF-2] |  |  | 2 | 3 | 2 | 3 |  |  |  |  | 0.00 |  | 2.50 |  |  |  | 
 | MFGNGKGYRGKRATTVTGTP [PL-2] |  |  | 2 | 3 | 2 | 3 | 2 | 3 | 2 |  | −2.86 |  | 2.43 |  |  |  | 
 | PTAQLIATLKNGRKI [PF-1] |  |  | 2 | 3 | 2 | 3 |  |  |  |  | 0.00 |  | 2.50 |  |  |  | 
 | QAWDSQSPHAHGYIPSKFPNKNLKKNY [PL-1] |  |  | 2 | 3 | 2 | 3 | 2 | 3 | 2 | 3 | 0.00 |  | 2.50 |  |  |  | 
 | vascular endothelial growth factor [VEGF, reference compound] |  |  |  |  |  |  |  |  |  |  |  |  |  |  | 0.69 | 0.78 | 0.77
